In patent publication US8426436B2, “Heterocyclic cyclopamine analogs and methods of use thereof” (Infinity Discovery, Inc., priority 2007, dated 2013):

Assays:
[1] = test system: Hedgehog pathway; test: C3H10T1/2 osteoblast differentiation assay (alkaline phosphatase readout, Shh-induced); type: cell-based; conditions: Mus musculus, C3H 10T1/2; C3H10T1/2 cells, sonic Hedgehog 250 ng/ml, AP activity normalized to total protein; approximate EC50 for inhibition
From the text: Hedgehog pathway specific cancer cell killing effects may be ascertained using the following assay. C3H10T1/2 cells differentiate into osteoblasts when contacted with the sonic hedgehog peptide (Shh-N). Upon differentiation, these osteoblasts produce high levels of alkaline phosphatase (AP) which can be measured in an enzymatic assay (Nakamura, et al., BBRC (1997) 237:465). Compounds that block the differentiation of C3H10T1/2 into osteoblasts (a Shh dependent event) can therefore be identified by a reduction in AP production (van der Horst, et al., Bone (2003) 33:899). The assay details are described below. The results approximate (EC50 for inhibition) of the differentiation assay is shown below in Table 1.
Mouse embryonic mesoderm fibroblasts C3H10T1/2 cells (obtained from ATCC) were cultured in Basal MEM Media (Gibco/Invitrogen) supplemented with 10% heat inactivated FBS (Hyclone), 50 units/ml penicillin and 50 ug/ml streptomycin (Gibco/Invitrogen) at 37° C. with 5% CO2 in air atmosphere.
Alkaline Phosphatase Assay C3H10T1/2 cells were plated in 96 wells with a density of 8×10^3 cells/well. Cells were grown to confluence (72 hrs). After sonic Hedgehog (250 ng/ml), and/or compound treatment, the cells were lysed in 110 μL of lysis buffer (50 mM Tris pH 7.4, 0.1% TritonX100), plates were sonicated and lysates spun through 0.2 μm PVDF plates (Corning). 40 μL of lysates was assayed for AP activity in alkaline buffer solution (Sigma) containing 1 mg/ml p-Nitrophenyl Phosphate. After incubating for 30 min at 37° C., the plates were read on an Envision plate reader at 405 nm. Total protein was quantified with a BCA protein assay kit from Pierce according to manufacturer's instructions. AP activity was normalized against total protein.

[2] = test system: medulloblastoma; test: Ptch1/Hic1 medulloblastoma subcutaneous allograft model, tumor growth; type: in vivo, mouse
Experimental: (§1) The activity of Compound 10 was evaluated in a transgenic mouse model of medulloblastoma. Mice that are heterozygous for loss of function mutations in the tumor suppressors Patched1 (Ptch1) and Hypermethylated in Cancer (Hic1) develop spontaneous medulloblastoma. […] When passaged as subcutaneous allografts, these tumors grow aggressively and are Hedgehog pathway-dependent. This model was employed to evaluate the efficacy of orally administered Compound, and to correlate activity with drug exposure in plasma and tumors.
The approximate effective daily oral dose for 50% inhibition of tumor growth (ED50) is […] 8 mg/kg.

[3] = test system: human Gli-1 mRNA; test: Gli-1 mRNA analysis of PANC-1 tumor tissue, human Gli-1; type: in vivo; conditions: RNA isolated 24 hours after final dose
Experimental: (§2) The activity of Compound 10 was also tested in another model of pancreatic cancer in which the PANC-1 pancreatic cancer cells were implanted into the orthotopic site, that is, directly into the pancreas. At the end of 5 weeks of dosing, 40 mg/kg/day (a total of 35 doses), tumor growth was monitored by weighing the tumors as they were removed from the animals. There was a statistically significant (p=0.00014) difference between the Compound 10 and vehicle treated animals which was seen as a 47% decrease in tumor weight in the Compound 10 treated animals. In addition, tumor tissue was harvested and RNA was isolated 24 hours after the final dose of Compound 10.

[4] = test system: PANC-1 pancreatic cancer cells; test: PANC-1 orthotopic pancreatic cancer model, tumor weight; type: in vivo; conditions: 40 mg/kg/day, 5 weeks (35 doses), p=0.00014
Experimental: as §2

[5] = test system: BxPC-3 cells; test: BxPC-3 human pancreatic subcutaneous tumor model, tumor volume; type: in vivo, mice; conditions: BxPC-3 subcutaneous, orally 40 mg/kg/day, 25 daily doses, p=0.0437
Experimental: (§3) The activity of Compound 10 was further tested in a human pancreatic model: BxPC-3 cells were implanted subcutaneously into the flanks of the right legs of mice. On day 42 post-tumor implant, the mice were randomized into two groups to receive either Vehicle (30% HPBCD) or Compound 10. Compound 10 was administered orally at 40 mg/kg/day. […] At the end of the study, the tumors were harvested 4 hours post the last dose to evaluate an on target response by q-RT-PCR analysis of the HH pathway genes.

[6] = test system: murine Gli-1; test: Gli-1 mRNA analysis of PANC-1 tumor tissue, murine Gli-1; type: in vivo; conditions: RNA isolated 24 hours after final dose
Experimental: as §2

[7] = test system: Gli-1 mRNA; test: Ptch1/Hic1 medulloblastoma subcutaneous allograft model, Gli-1 mRNA expression; type: in vivo, mouse; conditions: single oral (PO) dose, subcutaneously implanted tumors, 8 hours post dose
Experimental: as §1

[8] = test system: human Gli-1; test: q-RT-PCR of HH pathway genes in harvested BxPC-3 tumors, human Gli-1; type: in vivo; conditions: BxPC-3 tumors harvested 4 hours post last dose, 40 mg/kg/day oral
Experimental: as §3

[9] = test system: murine Gli-1 mRNA; test: q-RT-PCR of HH pathway genes in harvested BxPC-3 tumors, murine Gli-1; type: in vivo; conditions: BxPC-3 tumors harvested 4 hours post last dose, 40 mg/kg/day oral
Experimental: as §3

| Compound | EC50 [1] [nM] | also measured |
| --- | --- | --- |
| CC1=C2C[C@H]3[C@@H](CC[C@@H]4Cc5[nH]ncc5C[C@@]43C)[C@@H]2CC[C@@]2(C1)O[C@@H]1C[C@H](C)CN(S(C)(=O)=O)[C@H]1[C@H]2C [Compound 40] | 20 to 100 | – |
| CC1=C2C[C@H]3[C@@H](CC[C@@H]4Cc5nn(S(C)(=O)=O)cc5C[C@@]43C)[C@@H]2CC[C@@]2(C1)O[C@@H]1C[C@H](C)CN[C@H]1[C@H]2C [Compound 12] | > 100 | – |
| CC1=C2C[C@H]3[C@@H](CC[C@@H]4Cc5n[nH]cc5C[C@@]43C)[C@@H]2CC[C@@]2(C1)O[C@@H]1C[C@H](C)CN(C)[C@H]1[C@H]2C [Compound 13] | 20 to 100 | – |
| CC1=C2C[C@H]3[C@@H](CC[C@@H]4Cc5n[nH]cc5C[C@@]43C)[C@@H]2CC[C@@]2(C1)O[C@@H]1C[C@H](C)CN(O)[C@H]1[C@H]2C [Compound 31] | 20 to 100 | – |
| CC1=C2C[C@H]3[C@@H](CC[C@@H]4Cc5[nH][nH]c(=O)c5C[C@@]43C)[C@@H]2CC[C@@]2(C1)O[C@@H]1C[C@H](C)CN[C@H]1[C@H]2C [Compound 32] | > 100 | – |
| C[C@@H]1CN[C@H]2[C@@H](C)[C@@]3(CC[C@@H]4C(C[C@H]5[C@H]4CC[C@@H]4Cc6[nH]ncc6C[C@@]45C)C3)O[C@@H]2C1 (stereo partly shown) [Compound 17] | 20 to 100 | – |
| CC1=C2C[C@H]3[C@@H](CC[C@@H]4Cc5[nH]ncc5C[C@@]43C)[C@@H]2CC[C@]12O[C@@H]1C[C@H](C)CN[C@H]1[C@H]2C [Compound 19] | > 100 | – |
| CC1=C2C[C@H]3[C@@H](CC[C@H]4Cc5[nH]ncc5C[C@@]43C)[C@@H]2CC[C@@]2(C1)O[C@@H]1C[C@H](C)CN[C@H]1[C@H]2C [Compound 45] | > 100 | – |
| CC1=C2C[C@H]3[C@@H](CC[C@@H]4Cc5nc(C)sc5C[C@@]43C)[C@@H]2CC[C@@]2(C1)O[C@@H]1C[C@H](C)CN[C@H]1[C@H]2C [Compound 42] | > 100 | – |
| CC1=C2C[C@H]3[C@@H](CC[C@@H]4Cc5nn(S(=O)(=O)c6ccc(C)cc6)cc5C[C@@]43C)[C@@H]2CC[C@@]2(C1)O[C@@H]1C[C@H](C)CN[C@H]1[C@H]2C [Compound 43] | > 100 | – |
| CC1=C2C[C@H]3[C@@H](CC[C@@H]4Cc5nn(S(C)(=O)=O)cc5C[C@@]43C)[C@@H]2CC[C@@]2(C1)O[C@@H]1C[C@H](C)CN(S(C)(=O)=O)[C@H]1[C@H]2C [Compound 41] | > 100 | – |
| CC1=C2C[C@H]3[C@@H](CC[C@@H]4Cc5n[nH]cc5C[C@@]43C)[C@@H]2CC[C@@]2(C1)O[C@@H]1C[C@H](C)CN[C@H]1[C@H]2C [Compound 10] | < 20 | ED50 ([2]; Mus musculus, daily oral dosing, read-out: approximate effective daily oral dose for 50% inhibition of tumor growth (ED50)): ~8 mg/kg; tumor growth effect ([2]; daily (QD) PO administration): dose dependent inhibition of tumor growth, with frank tumor regression seen at higher doses; long term survival following cessation of treatment ([2]; treated QD for 21 days): > 19 days; tumor re-growth after cessation of treatment ([2]; treated QD for 21 days): little to no tumor re-growth; human Gli-1 mRNA modulation [3]: no modulation; decrease in tumor weight vs vehicle [4]: 47%; reduction of tumor volume growth compared to vehicle control [5]: 37%; murine Gli-1 modulation [6]: did reveal modulation; HH pathway regulation measured by Gli-1 mRNA expression [7]: dose-dependent down-regulation; human Gli-1 modulation (q-RT-PCR) [8]: no modulation; murine Gli-1 mRNA levels vs vehicle [9]: robust down-regulation |
| CC1=C2C[C@H]3[C@@H](CC[C@@H]4Cc5nn(C)cc5C[C@@]43C)[C@@H]2CC[C@@]2(C1)O[C@@H]1C[C@H](C)CN[C@H]1[C@H]2C [Compound 11] | 20 to 100 | – |
| CC(=O)N1C[C@@H](C)C[C@H]2O[C@]3(CC[C@@H]4C(=C(C)C3)C[C@H]3[C@H]4CC[C@@H]4Cc5n[nH]cc5C[C@@]43C)[C@H](C)[C@@H]21 [Compound 14] | 20 to 100 | – |
| CC1=C2C[C@H]3[C@@H](CC[C@@H]4Cc5n[nH]c(C(F)(F)F)c5C[C@@]43C)[C@@H]2CC[C@@]2(C1)O[C@@H]1C[C@H](C)CN[C@H]1[C@H]2C [Compound 15] | > 100 | – |
| CC1=C2C[C@H]3[C@@H](CC[C@@H]4Cc5[nH]ncc5C[C@@]43C)[C@@H]2CC[C@@]2(C1)O[C@@H]1C[C@H](C)CN(S(N)(=O)=O)[C@H]1[C@H]2C [Compound 44] | 20 to 100 | – |
| CC1=C2C[C@H]3[C@@H](CC[C@@H]4Cc5nocc5C[C@@]43C)[C@@H]2CC[C@@]2(C1)O[C@@H]1C[C@H](C)CN[C@H]1[C@H]2C [Compound 1] | 20 to 100 | – |
